The IC50 is the concentration at which inhibition is half-maximal. Low values mean inhibition by little substance, high ones a need for much substance.

One assay concerns SK-MES-1. Kind of assay: Antitumor activity against lung carcinoma cell line (SK-MES-1). Type of assay: functional, cell-based. Particulars: Homo sapiens; call rule not given here.
The next assay has as its system Human alphaherpesvirus 1. Kind of assay: Antiviral activity against Herpes simplex virus type 1 (HSV-1) up to 100 uM concentration; inactive. Type of assay: functional, organism-based.
The test system of assay [1] is Human immunodeficiency virus 1. Kind of assay: Antiviral activity against Human immunodeficiency virus 1 (HIV-1) up to 100 uM concentration; inactive. Type of assay: functional, organism-based.
The next assay has as its system HT-29. Kind of assay: Antitumor activity against colon carcinoma cell line (HT-29). Type of assay: functional, cell-based. The note with it: Homo sapiens.
The test system of the next assay is MCF7. Kind of assay: Antitumor activity against breast carcinoma cell line (MCF-7M). Type of assay: functional, cell-based. Particulars: Homo sapiens.

On to `Cc1cn([C@@H]2C[C@H](CO)N(O)C2)c(=O)[nH]c1=O`, for which the IC50 is 6.91 µM in the assay with SK-MES-1; “Not Active” in the assay with Human alphaherpesvirus 1; “Not Active” in assay [1]; 14 µM with HT-29; 80 nM in the assay on MCF7.
`Cc1cn([C@@H]2C[C@H](CO)N(N=O)C2)c(=O)[nH]c1=O`: the IC50 entry (in the assay on Human alphaherpesvirus 1; in assay [1]) was “Not Active” each time.
Consider `Cc1cn(C2CNC(CO)C2)c(=O)[nH]c1=O` (centres undefined), for which the IC50 entry (with Human alphaherpesvirus 1; in assay [1]) was “Not Active” in each case.
As to `COC(=O)N1CC(n2cc(C)c(=O)[nH]c2=O)C[C@H]1CO` (some centres undefined), the IC50 entry (with Human alphaherpesvirus 1; in assay [1]) was “Not Active” in each case.
For `Cc1cn(C2C[C@@H](CO)N(C=O)C2)c(=O)[nH]c1=O` (some centres undefined), the 50% inhibitory concentration (IC50) result (with Human alphaherpesvirus 1; in assay [1]) was “Not Active” throughout.
`Cc1cn(C2C[C@@H](CO)N(CCC#N)C2)c(=O)[nH]c1=O` (some centres undefined): the IC50 result (in the assay on Human alphaherpesvirus 1; in assay [1]) was “Not Active” throughout.
As to `Cc1cn(C2C[C@@H](CO)N(C#N)C2)c(=O)[nH]c1=O` (some centres undefined), the IC50 entry (with Human alphaherpesvirus 1; in assay [1]) was “Not Active” in each case.
`O=c1[nH]cc(F)c(=O)[nH]1` [FLUOROURACIL]: the figures for the IC50 in the assay with SK-MES-1 and with HT-29 were 0.31 µM and 0.15 µM, respectively.

Values taken from ChEMBL document CHEMBL1124550, “Replacement of the 3'-CH group by nitrogen in the carbocyclic analogue of thymidine” (J Med Chem, 1989).
